Measured values: ChEMBL document CHEMBL5360592, “Ursane-Type Triterpenes with a Phenylpropanoid Unit from Camellia ptilosperma and Evaluation of Their Cytotoxic Activities” (J Nat Prod, 2023)

Columns and labels:
Type in all cases: functional, cell-based
[1] = tested on: CT26; assay: Cytotoxicity against mouse CT26 cells assessed as inhibition of cell growth incubated for 24 hrs by MTT assay; conditions: CT26, 24 h
[2] = tested on: NCI-H460; assay: Cytotoxicity against human NCI-H460 cells assessed as inhibition of cell growth incubated for 24 hrs by MTT assay; conditions: NCI-H460, 24 h
[3] = Cytotoxicity against mouse LL2 cells assessed as inhibition of cell growth incubated for 24 hrs by MTT assay; conditions: Lewis lung carcinoma
[4] = tested on: HCT-116; assay: Cytotoxicity against human HCT-116 cells assessed as inhibition of cell growth incubated for 24 hrs by MTT assay; conditions: HCT-116, 24 h
[5] = tested on: HeLa; assay: Cytotoxicity against human HeLa cells assessed as inhibition of cell growth incubated for 24 hrs by MTT assay
[6] = Cytotoxicity against mouse Hepa1-6 cells assessed as inhibition of cell growth incubated for 24 hrs by MTT assay; conditions: Hepa1-6, 24 h
[7] = tested on: A549; assay: Cytotoxicity against human A549 cells assessed as inhibition of cell growth incubated for 24 hrs by MTT assay; conditions: A549, 24 h
[8] = tested on: MDA-MB-231; assay: Cytotoxicity against human MDA-MB-231 cells assessed as inhibition of cell growth incubated for 24 hrs by MTT assay; conditions: MDA-MB-231, 24 h
[9] = tested on: HT-29; assay: Cytotoxicity against human HT-29 cells assessed as inhibition of cell growth incubated for 24 hrs by MTT assay; conditions: HT-29, 24 h

SMILES	IC50 [1]	IC50 [2]	IC50 [3]	IC50 [4]	IC50 [5]	IC50 [6]	IC50 [7]	IC50 [8]	IC50 [9]
COC(=O)[C@@]1(C)[C@@H]2CC[C@]3(C)[C@H]([C@@H]4O[C@@H](c5ccc(O)c(OC)c5)[C@@H](C)OC4=C4[C@@H]5[C@@H](C)[C@H](C)CC[C@]5(C)CC[C@]43C)[C@@]2(C)CC[C@@H]1O	> 10 µM	> 10 µM	> 10 µM	> 10 µM	8.1 µM	4.1 µM	> 10 µM	> 10 µM	8.5 µM
COc1cc([C@H]2OC3=C4[C@@H]5[C@@H](C)[C@H](C)CC[C@]5(C)CC[C@@]4(C)[C@]4(C)CC[C@H]5C(C)(C)[C@@H](O)CC[C@]5(C)[C@H]4[C@@H]3O[C@@H]2CO)ccc1O	> 10 µM	> 10 µM	> 10 µM	1.4 µM	0.7 µM	2.7 µM	> 10 µM	2.7 µM	5.1 µM
COC(=O)[C@@]1(C)[C@@H]2CC[C@]3(C)[C@H]([C@@H]4O[C@H](C)[C@@H](c5ccc(O)c(OC)c5)OC4=C4[C@@H]5[C@@H](C)[C@H](C)CC[C@]5(C)CC[C@]43C)[C@@]2(C)CC[C@@H]1O	> 10 µM	> 10 µM	> 10 µM	7.5 µM	> 10 µM	> 10 µM	> 10 µM	9.3 µM	> 10 µM
COC(=O)[C@@]1(C)[C@@H]2CC[C@]3(C)[C@H]([C@@H]4O[C@H](c5ccc(O)c(OC)c5)[C@@H](C)OC4=C4[C@@H]5[C@@H](C)[C@H](C)CC[C@]5(C)CC[C@]43C)[C@@]2(C)CC[C@@H]1O	9.1 µM	> 10 µM	> 10 µM	8.2 µM	> 10 µM	> 10 µM	> 10 µM	4.9 µM	> 10 µM
COC(=O)[C@]1(C)[C@@H]2CC[C@]3(C)[C@H]([C@@H]4O[C@H](CO)[C@@H](c5ccc(O)c(OC)c5)OC4=C4[C@@H]5[C@@H](C)[C@H](C)CC[C@]5(C)CC[C@]43C)[C@@]2(C)CC[C@@H]1O	8.2 µM	> 10 µM	> 10 µM	> 10 µM	> 10 µM	> 10 µM	> 10 µM	> 10 µM	> 10 µM
COc1cc([C@H]2O[C@@H]3C(=C4[C@@H]5[C@@H](C)[C@H](C)CC[C@]5(C)CC[C@@]4(C)[C@]4(C)CC[C@H]5C(C)(C)[C@@H](O)CC[C@]5(C)[C@@H]34)O[C@@H]2CO)ccc1O	7.5 µM	> 10 µM	> 10 µM	5.7 µM	5.2 µM	4.7 µM	> 10 µM	2.2 µM	6.8 µM
